Results published in ChEMBL document CHEMBL2417377, “Hit-to-lead optimization and kinase selectivity of imidazo[1,2-a]quinoxalin-4-amine derived JNK1 inhibitors” (Bioorg Med Chem Lett, 2013).

Legend:
Conditions in all cases: PC-3
[1] = biological target: Serine/threonine-protein kinase WNK2 (Homo sapiens) (UniProt Q9Y3S1); assay: Inhibition of Wnk2 in human PC3 cell lysates at 10 uM using desthiobiotin-tagged ATP probe AX9989 followed by trypsinization by LC/MS analysis
[2] = biological target: Serine/threonine-protein kinase ATR (Homo sapiens) (UniProt Q13535); assay: Inhibition of ATR in human PC3 cell lysates at 10 uM using desthiobiotin-tagged ATP probe AX9989 followed by trypsinization by LC/MS analysis
[3] = biological target: Serine/threonine-protein kinase WNK4 (Homo sapiens) (UniProt Q96J92); assay: Inhibition of Wnk4 in human PC3 cell lysates at 10 uM using desthiobiotin-tagged ATP probe AX9989 followed by trypsinization by LC/MS analysis
[4] = biological target: IKK epsilon/TBK1 (Homo sapiens) (UniProt Q14164+Q9UHD2); assay: Inhibition of IKKepsilon/TBK1 in human PC3 cell lysates at 10 uM using desthiobiotin-tagged ATP probe AX9989 followed by trypsinization by LC/MS analysis; format: protein-complex assay
[5] = biological target: Cyclin-dependent kinase 2 (Homo sapiens) (UniProt P24941); assay: Inhibition of CDK2 in human PC3 cell lysates at 10 uM using desthiobiotin-tagged ATP probe AX9989 followed by trypsinization by LC/MS analysis
[6] = biological target: Focal adhesion kinase 1 (Homo sapiens) (UniProt Q05397); assay: Inhibition of FAK in human PC3 cell lysates at 10 uM using desthiobiotin-tagged ATP probe AX9989 followed by trypsinization by LC/MS analysis
Chain of Focal adhesion kinase 1 (Homo sapiens) (Q05397 2-1052 limits assumed): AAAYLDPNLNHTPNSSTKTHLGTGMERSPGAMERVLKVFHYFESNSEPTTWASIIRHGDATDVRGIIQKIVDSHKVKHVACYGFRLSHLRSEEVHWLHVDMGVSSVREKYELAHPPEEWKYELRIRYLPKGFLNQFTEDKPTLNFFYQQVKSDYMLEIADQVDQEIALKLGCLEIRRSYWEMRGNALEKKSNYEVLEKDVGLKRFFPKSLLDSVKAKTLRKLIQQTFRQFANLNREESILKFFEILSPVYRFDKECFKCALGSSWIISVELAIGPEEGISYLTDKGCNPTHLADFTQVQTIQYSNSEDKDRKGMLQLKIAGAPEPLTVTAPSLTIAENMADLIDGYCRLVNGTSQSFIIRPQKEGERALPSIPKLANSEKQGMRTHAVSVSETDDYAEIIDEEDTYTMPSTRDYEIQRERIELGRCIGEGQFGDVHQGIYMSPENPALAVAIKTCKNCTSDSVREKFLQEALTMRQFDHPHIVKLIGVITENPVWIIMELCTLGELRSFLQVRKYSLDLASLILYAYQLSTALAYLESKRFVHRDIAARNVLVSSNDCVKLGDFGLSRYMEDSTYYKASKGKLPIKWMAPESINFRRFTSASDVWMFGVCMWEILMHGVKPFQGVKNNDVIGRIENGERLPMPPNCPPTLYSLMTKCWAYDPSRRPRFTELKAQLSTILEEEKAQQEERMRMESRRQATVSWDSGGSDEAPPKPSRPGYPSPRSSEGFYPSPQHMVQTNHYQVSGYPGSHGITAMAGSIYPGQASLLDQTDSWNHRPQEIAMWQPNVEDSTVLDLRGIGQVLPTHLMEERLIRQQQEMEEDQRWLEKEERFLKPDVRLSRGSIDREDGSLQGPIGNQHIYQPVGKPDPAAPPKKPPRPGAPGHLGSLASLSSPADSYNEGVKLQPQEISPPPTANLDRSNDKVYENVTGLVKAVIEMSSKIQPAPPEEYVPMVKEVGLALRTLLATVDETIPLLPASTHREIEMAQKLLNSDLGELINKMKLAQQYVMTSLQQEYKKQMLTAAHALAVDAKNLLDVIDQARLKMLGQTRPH

[7] = biological target: Mitogen-activated protein kinase kinase kinase 4 (Homo sapiens) (UniProt Q9Y6R4); assay: Inhibition of MAP3K4 in human PC3 cell lysates at 10 uM using desthiobiotin-tagged ATP probe AX9989 followed by trypsinization by LC/MS analysis
[8] = Inhibition of PITSLRE in human PC3 cell lysates at 10 uM using desthiobiotin-tagged ATP probe AX9989 followed by trypsinization by LC/MS analysis; format: cell-free
[9] = biological target: Mitogen-activated protein kinase kinase kinase 11 (Homo sapiens) (UniProt Q16584); assay: Inhibition of MLK3 in human PC3 cell lysates at 10 uM using desthiobiotin-tagged ATP probe AX9989 followed by trypsinization by LC/MS analysis
Chain of Mitogen-activated protein kinase kinase kinase 11 (Homo sapiens) (Q16584 whole entry, looked up): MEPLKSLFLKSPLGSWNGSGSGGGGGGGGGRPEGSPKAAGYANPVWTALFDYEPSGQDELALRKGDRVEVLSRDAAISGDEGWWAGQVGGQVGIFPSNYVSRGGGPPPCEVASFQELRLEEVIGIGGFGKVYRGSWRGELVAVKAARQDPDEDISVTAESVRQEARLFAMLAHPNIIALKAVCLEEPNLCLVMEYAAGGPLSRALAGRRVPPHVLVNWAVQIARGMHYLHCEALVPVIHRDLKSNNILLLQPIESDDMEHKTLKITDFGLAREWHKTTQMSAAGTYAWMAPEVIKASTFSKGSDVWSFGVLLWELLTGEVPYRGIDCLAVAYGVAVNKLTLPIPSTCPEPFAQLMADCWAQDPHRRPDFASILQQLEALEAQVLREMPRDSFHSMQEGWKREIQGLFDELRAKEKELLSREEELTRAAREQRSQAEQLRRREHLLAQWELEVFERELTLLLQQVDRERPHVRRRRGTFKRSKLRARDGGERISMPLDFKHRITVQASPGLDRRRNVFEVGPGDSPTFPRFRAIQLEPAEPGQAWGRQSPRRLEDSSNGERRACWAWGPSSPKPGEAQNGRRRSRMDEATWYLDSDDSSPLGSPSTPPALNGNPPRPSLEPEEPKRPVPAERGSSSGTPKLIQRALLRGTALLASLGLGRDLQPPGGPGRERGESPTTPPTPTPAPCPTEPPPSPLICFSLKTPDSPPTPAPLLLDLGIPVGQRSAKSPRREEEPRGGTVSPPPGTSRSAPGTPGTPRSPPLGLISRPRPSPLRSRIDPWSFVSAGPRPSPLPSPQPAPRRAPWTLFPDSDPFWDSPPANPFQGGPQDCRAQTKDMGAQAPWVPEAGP

[10] = biological target: Interferon-induced, double-stranded RNA-activated protein kinase (Homo sapiens) (UniProt P19525); assay: Inhibition of PKR in human PC3 cell lysates at 10 uM using desthiobiotin-tagged ATP probe AX9989 followed by trypsinization by LC/MS analysis
[11] = biological target: Ribosomal protein S6 kinase alpha-3 (Homo sapiens) (UniProt P51812); assay: Inhibition of RSK2 domain2 in human PC3 cell lysates at 10 uM using desthiobiotin-tagged ATP probe AX9989 followed by trypsinization by LC/MS analysis
Chain of Ribosomal protein S6 kinase alpha-3 (Homo sapiens) (P51812 whole entry, the tested form may be a part): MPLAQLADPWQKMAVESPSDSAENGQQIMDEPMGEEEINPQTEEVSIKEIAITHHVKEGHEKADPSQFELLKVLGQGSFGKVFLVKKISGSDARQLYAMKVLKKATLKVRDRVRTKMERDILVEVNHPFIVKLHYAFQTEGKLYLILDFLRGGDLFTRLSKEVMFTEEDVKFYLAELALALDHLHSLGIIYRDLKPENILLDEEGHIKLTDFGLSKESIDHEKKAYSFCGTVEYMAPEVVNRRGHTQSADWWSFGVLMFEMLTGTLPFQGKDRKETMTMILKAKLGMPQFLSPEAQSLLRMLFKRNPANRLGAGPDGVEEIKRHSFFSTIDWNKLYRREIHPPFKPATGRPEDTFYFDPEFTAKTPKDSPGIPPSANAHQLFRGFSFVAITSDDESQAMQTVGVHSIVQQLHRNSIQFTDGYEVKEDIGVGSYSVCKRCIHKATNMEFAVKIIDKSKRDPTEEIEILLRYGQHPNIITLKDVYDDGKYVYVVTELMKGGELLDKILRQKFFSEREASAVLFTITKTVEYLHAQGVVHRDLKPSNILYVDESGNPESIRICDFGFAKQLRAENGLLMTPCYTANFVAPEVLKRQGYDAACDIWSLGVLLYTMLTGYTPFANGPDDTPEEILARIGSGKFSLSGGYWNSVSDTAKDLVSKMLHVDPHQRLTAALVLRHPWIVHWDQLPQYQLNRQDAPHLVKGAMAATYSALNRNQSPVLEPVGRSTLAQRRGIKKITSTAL

[12] = biological target: T1, Serine/threonine-protein kinase D2 (Homo sapiens) (UniProt Q9BZL6); assay: Inhibition of PKD2 in human PC3 cell lysates at 10 uM using desthiobiotin-tagged ATP probe AX9989 followed by trypsinization by LC/MS analysis
T1 sequence (whole entry): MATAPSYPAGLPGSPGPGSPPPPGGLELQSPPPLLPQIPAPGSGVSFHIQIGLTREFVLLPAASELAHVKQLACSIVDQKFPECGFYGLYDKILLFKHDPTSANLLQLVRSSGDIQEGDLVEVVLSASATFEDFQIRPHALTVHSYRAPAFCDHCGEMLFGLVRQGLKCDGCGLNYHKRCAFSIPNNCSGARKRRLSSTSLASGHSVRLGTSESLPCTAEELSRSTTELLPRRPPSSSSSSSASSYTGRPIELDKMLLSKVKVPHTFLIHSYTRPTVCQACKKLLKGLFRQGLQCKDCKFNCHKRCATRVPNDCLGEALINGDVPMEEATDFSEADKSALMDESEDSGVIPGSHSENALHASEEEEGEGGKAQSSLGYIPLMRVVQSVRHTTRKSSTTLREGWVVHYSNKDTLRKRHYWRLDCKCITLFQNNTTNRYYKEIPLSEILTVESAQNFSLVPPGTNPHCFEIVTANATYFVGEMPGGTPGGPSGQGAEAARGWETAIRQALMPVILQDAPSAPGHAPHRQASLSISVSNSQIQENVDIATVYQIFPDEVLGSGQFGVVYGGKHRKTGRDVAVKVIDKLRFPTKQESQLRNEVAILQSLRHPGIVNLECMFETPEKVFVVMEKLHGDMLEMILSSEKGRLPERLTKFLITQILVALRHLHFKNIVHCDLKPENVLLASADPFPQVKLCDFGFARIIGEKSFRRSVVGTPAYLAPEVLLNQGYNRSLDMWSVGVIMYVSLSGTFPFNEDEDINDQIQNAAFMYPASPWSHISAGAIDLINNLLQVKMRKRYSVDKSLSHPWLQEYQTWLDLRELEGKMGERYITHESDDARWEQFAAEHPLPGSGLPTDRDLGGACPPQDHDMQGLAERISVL

[13] = biological target: Cyclin-dependent kinase 5 (Homo sapiens) (UniProt Q00535); assay: Inhibition of CDK5 in human PC3 cell lysates at 10 uM using desthiobiotin-tagged ATP probe AX9989 followed by trypsinization by LC/MS analysis
[14] = biological target: Casein kinase II subunit alpha' (Homo sapiens) (UniProt P19784); assay: Inhibition of CK2alpha2 in human PC3 cell lysates at 10 uM using desthiobiotin-tagged ATP probe AX9989 followed by trypsinization by LC/MS analysis
[15] = biological target: T2, Dual specificity mitogen-activated protein kinase kinase 3 (Homo sapiens) (UniProt P46734); assay: Inhibition of MAP2K3 in human PC3 cell lysates at 10 uM using desthiobiotin-tagged ATP probe AX9989 followed by trypsinization by LC/MS analysis
T2 sequence (whole entry): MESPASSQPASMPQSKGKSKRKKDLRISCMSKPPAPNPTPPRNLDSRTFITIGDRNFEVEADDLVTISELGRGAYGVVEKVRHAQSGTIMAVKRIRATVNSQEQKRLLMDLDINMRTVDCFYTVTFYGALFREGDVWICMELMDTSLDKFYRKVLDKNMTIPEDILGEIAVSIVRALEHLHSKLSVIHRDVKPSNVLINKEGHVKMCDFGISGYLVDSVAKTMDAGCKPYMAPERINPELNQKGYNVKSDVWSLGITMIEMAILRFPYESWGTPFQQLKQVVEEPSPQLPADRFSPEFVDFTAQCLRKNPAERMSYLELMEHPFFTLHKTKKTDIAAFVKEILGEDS

[16] = biological target: Dual specificity mitogen-activated protein kinase kinase 2 (Homo sapiens) (UniProt P36507); assay: Inhibition of MAP2K2 in human PC3 cell lysates at 10 uM using desthiobiotin-tagged ATP probe AX9989 followed by trypsinization by LC/MS analysis
[17] = biological target: Cyclin-dependent kinase 10 (Homo sapiens) (UniProt Q15131); assay: Inhibition of CDK10 in human PC3 cell lysates at 10 uM using desthiobiotin-tagged ATP probe AX9989 followed by trypsinization by LC/MS analysis

Chain of Serine/threonine-protein kinase WNK2 (Homo sapiens) (Q9Y3S1 whole entry): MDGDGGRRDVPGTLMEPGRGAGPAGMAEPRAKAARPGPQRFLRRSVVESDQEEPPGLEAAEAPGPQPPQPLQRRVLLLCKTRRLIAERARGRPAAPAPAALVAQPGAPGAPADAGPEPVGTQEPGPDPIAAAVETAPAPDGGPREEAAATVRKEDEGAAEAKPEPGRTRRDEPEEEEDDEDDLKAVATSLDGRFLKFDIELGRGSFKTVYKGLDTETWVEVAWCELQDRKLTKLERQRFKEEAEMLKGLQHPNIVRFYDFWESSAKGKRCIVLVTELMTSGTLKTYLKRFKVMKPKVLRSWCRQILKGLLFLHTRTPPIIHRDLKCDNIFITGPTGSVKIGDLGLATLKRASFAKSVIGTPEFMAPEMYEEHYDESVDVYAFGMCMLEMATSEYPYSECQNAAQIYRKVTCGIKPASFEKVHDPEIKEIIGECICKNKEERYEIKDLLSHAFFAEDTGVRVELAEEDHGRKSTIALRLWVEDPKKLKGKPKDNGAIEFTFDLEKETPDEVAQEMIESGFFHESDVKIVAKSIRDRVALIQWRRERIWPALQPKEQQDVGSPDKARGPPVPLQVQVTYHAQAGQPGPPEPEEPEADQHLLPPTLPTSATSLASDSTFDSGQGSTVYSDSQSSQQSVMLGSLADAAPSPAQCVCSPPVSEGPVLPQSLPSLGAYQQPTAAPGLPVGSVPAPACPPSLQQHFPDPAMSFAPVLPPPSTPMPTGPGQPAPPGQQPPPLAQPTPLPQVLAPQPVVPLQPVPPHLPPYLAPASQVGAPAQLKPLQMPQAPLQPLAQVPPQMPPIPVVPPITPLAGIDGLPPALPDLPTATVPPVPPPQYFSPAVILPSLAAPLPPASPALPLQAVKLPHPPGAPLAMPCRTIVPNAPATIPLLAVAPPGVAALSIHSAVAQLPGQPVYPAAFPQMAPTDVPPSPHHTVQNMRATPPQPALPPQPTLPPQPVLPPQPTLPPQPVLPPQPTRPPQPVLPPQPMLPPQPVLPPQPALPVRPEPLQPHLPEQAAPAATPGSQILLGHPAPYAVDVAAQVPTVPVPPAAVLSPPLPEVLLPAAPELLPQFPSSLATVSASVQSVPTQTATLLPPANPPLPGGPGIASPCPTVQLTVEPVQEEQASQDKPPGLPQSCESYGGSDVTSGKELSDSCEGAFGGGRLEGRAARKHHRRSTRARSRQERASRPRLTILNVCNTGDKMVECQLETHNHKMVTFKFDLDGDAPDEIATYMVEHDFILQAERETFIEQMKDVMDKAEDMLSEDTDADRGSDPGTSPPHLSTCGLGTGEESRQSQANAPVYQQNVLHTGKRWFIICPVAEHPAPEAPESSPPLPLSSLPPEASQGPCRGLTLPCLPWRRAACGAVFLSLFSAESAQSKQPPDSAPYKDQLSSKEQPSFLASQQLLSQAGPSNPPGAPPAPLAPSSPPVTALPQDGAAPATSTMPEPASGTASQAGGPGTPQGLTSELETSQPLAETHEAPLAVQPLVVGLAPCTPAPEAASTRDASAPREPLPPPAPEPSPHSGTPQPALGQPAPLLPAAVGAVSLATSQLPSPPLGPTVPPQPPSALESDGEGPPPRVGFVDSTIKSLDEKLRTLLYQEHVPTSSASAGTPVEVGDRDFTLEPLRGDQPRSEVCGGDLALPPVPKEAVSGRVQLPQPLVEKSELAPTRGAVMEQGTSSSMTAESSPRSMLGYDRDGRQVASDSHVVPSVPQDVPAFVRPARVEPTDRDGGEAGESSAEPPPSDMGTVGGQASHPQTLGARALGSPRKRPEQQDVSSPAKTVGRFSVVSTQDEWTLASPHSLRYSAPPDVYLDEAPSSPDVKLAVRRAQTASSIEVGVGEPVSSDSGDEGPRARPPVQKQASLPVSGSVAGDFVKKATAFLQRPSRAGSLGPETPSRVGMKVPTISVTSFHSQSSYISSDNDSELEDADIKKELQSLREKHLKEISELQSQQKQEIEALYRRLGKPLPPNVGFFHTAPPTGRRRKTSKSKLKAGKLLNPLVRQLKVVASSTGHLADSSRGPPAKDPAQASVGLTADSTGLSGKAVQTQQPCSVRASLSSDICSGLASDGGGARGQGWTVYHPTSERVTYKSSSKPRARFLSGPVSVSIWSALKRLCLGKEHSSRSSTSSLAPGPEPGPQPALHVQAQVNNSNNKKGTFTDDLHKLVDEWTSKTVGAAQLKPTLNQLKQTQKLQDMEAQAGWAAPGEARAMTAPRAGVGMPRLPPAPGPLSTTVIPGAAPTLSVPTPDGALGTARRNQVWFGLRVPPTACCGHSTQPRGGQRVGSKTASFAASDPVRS

Structure (SMILES) | inhibition [1] [%] | inhibition [2] [%] | inhibition [3] [%] | inhibition [4] [%] | inhibition [5] [%] | inhibition [6] [%] | inhibition [7] [%] | inhibition [9] [%] | inhibition [10] [%] | inhibition [11] [%] | inhibition [12] [%] | inhibition [13] [%] | inhibition [14] [%] | inhibition [15] [%] | inhibition [16] [%] | inhibition [17] [%] | inhibition [8] [%]
O=C(NC1(c2ccccc2)CC1)c1ccc2nc(N[C@H]3CC[C@H](O)CC3)c3nccn3c2c1 | < 35 | < 35 | < 35 | < 35 | < 35 | < 35 | < 35 | < 35 | < 35 | < 35 | < 35 | < 35 | < 35 | < 35 | < 35 | < 35 | < 35
O=C(O)c1ccc2nc(N[C@H]3CC[C@H](O)CC3)c3nccn3c2c1 | < 35 | < 35 | < 35 | < 35 | 59.1 | < 35 | < 35 | < 35 | < 35 | < 35 | < 35 | < 35 | 40.6 | < 35 | < 35 | 91.3 | 99.3
O=C(NC1(c2ccc(F)cc2)CC1)c1ccc2nc(N[C@H]3CC[C@H](O)CC3)c3nccn3c2c1 | < 35 | < 35 | < 35 | < 35 | < 35 | < 35 | < 35 | < 35 | < 35 | < 35 | < 35 | < 35 | < 35 | < 35 | < 35 | < 35 | < 35
O=C(NC1(Cc2ccc(F)cc2)CC1)c1ccc2nc(N[C@H]3CC[C@H](O)CC3)c3nccn3c2c1 | < 35 | < 35 | < 35 | < 35 | < 35 | < 35 | < 35 | < 35 | < 35 | < 35 | < 35 | < 35 | < 35 | < 35 | < 35 | < 35 | < 35
NC(=O)c1ccc2nc(N[C@H]3CC[C@H](O)CC3)c3nccn3c2c1 | < 35 | < 35 | < 35 | < 35 | < 35 | < 35 | < 35 | < 35 | < 35 | < 35 | 51.7 | < 35 | < 35 | < 35 | < 35 | 90.4 | 95.6

The next lines start with results.

inhibition [1] [%] | inhibition [2] [%] | inhibition [3] [%] | inhibition [4] [%] | inhibition [5] [%] | inhibition [6] [%] | inhibition [7] [%] | inhibition [9] [%] | inhibition [10] [%] | inhibition [11] [%] | inhibition [12] [%] | inhibition [13] [%] | inhibition [14] [%] | inhibition [15] [%] | inhibition [16] [%] | inhibition [17] [%] | Structure (SMILES) | inhibition [8] [%]
< 35 | < 35 | < 35 | 38.7 | < 35 | < 35 | < 35 | < 35 | < 35 | < 35 | < 35 | < 35 | < 35 | < 35 | < 35 | 56.2 | C[C@@H](NC(=O)c1ccc2nc(N[C@H]3CC[C@H](O)CC3)c3nccn3c2c1)c1ccccc1 | < 35
< 35 | < 35 | < 35 | < 35 | < 35 | < 35 | < 35 | < 35 | < 35 | < 35 | < 35 | < 35 | < 35 | < 35 | < 35 | < 35 | CC[C@@H](NC(=O)c1ccc2nc(N[C@H]3CC[C@H](O)CC3)c3nccn3c2c1)c1ccccc1 | < 35
< 35 | < 35 | < 35 | < 35 | < 35 | < 35 | < 35 | < 35 | < 35 | < 35 | < 35 | < 35 | < 35 | < 35 | < 35 | < 35 | CCC[C@@H](NC(=O)c1ccc2nc(N[C@H]3CC[C@H](O)CC3)c3nccn3c2c1)c1ccccc1 | < 35
< 35 | < 35 | < 35 | < 35 | < 35 | < 35 | < 35 | < 35 | < 35 | < 35 | < 35 | < 35 | < 35 | < 35 | < 35 | 46.6 | O=C(N[C@H](CO)c1ccccc1)c1ccc2nc(N[C@H]3CC[C@H](O)CC3)c3nccn3c2c1 | < 35
< 35 | < 35 | < 35 | < 35 | < 35 | < 35 | < 35 | < 35 | < 35 | < 35 | < 35 | < 35 | < 35 | < 35 | < 35 | < 35 | CC(C)(NC(=O)c1ccc2nc(N[C@H]3CC[C@H](O)CC3)c3nccn3c2c1)c1ccccc1 | < 35
